Results from patent US20240358693A1, “METHODS OF TREATING PAIN” (Aisa Pharma, Inc., priority 2023, published 2024).

Test system: participants with SSc-RP
Experiment: Scleroderma Health Assessment Questionnaire (SHAQ): disability indices and visual analog scales
Assay type: in vivo, human
Excerpt: The standard, validated, patient reported outcome measures tool for SSc patients, the Scleroderma Health Assessment Questionnaire (SHAQ), will be used to assess the participant qualify of life. Details are attached in the Appendix. The participant quality of life will be scored, and a disability index calculated for each questionnaire completed by the patient at Screening and each in-clinic visit. The absolute change in participant quality of life from baseline to the end of each dosing period will be calculated similar to frequency data as before.
The SHAQ includes a Raynaud's VAS, which will be reported at screening and each in-clinic visit. The absolute change in Raynaud-VAS, assessed by the participants response to the SHAQ question ‘In the past 7 days, how much have your Raynaud's interfered with your daily activities?’ at baseline and the end of each dosing period will be calculated similar to frequency data as before.
The SHAQ is used to calculate a Disability Index to assess the participant qualify of life. The eight categories assessed by the Disability Index are 1) dressing and grooming, 2) arising, 3) eating, 4) walking, 5) hygiene, 6) reach, 7) grip, and 8) common daily activities. For each of these categories, patients report the amount of difficulty they have in performing two or three specific activities.
There are four possible responses for the Disability Index questions: • Without any difficulty=0 • With some difficulty=1 • With much difficulty=2 • Unable to do=3. • The highest score reported by the patient for any component question of the eight categories determines the score for that category. • If a component question is left blank or the response is too ambiguous to assign a score, then the score for that category is determined by the remaining completed question(s). • If all component questions are blank or if more than one answer is given, then follow up with the respondent is required. • If the respondent's mark is between the response columns, then move it to the closest one. If it's directly between the two, move it to the higher one.
Each of the disability items on the SHAQ has a companion aids/devices variable that is used to record what type(s) of assistance, if any, the participant uses for his/her usual activities. These variables (see below) are coded as follows: • 0=No assistance is needed. • 1=A special device is used by the patient in his/her usual activities. • 2=The patient usually needs help from another person. • 3=The patient usually needs BOTH a special device AND help from another person.
The scoring variables and scoring rules permit the computation of two disability indices, the Standard Disability Index and the Alternative Disability Index.
This question results in a new set of category scores that are computed by adjusting the score for each category, if necessary, based on the patient's use of an aid or device or assistance for that category. If either devices and/or help from another person are checked for a category, the score is set to “2”, unless the score is already “3” (i.e., scores of “0” or “1” are increased to “2”). For example, if the highest score for the dressing category is “1”, and the patient says they use a device for dressing, the computed category score would be “2”. The sum of the computed categories scores is then calculated and divided by the number of categories answered. This gives a score in the 0 to 3 range.
The aid and device variables are not used to calculate the alternative disability index; it is calculated by adding the scores for each of the categories and dividing by the number of categories answered. This gives a score in the 0 to 3 range.
The standard, validated, patient reported outcome measures tool for SSc patients, the SHAQ, was collected at the time points specified in the study schedules (FIG. 2 and FIGS. 4A and 4B) to assess the participant's quality of life. The SHAQ included a Raynaud's VAS that will also be reported separately.

[1] = Pooled Cilnidipine (N = 7), sensitivity analysis, Modified ITT, Part A
[2] = Pooled Cilnidipine (N = 8), Day 12, PP Population Part A, SSc patients
[3] = Pooled Cilnidipine (N = 8), PP Population Part A, SSc patients
[4] = Pooled Cilnidipine (n = 7), mITT population

Which results are given for `COCCOC(=O)C1=C(C)NC(C)=C(C(=O)OC/C=C/c2ccccc2)C1c1cccc([N+](=O)[O-])c1` (stereo not shown) [Cilnidipine, cilnidipine]?
SHAQ VAS Breathing Problems: Change from Baseline, Median [1]: 0.000; SHAQ VAS Breathing Problems: Day 12, Mean [1]: 1.029; SHAQ VAS Breathing Problems: Day 12, Median [1]: 0.000; SHAQ VAS Breathing Problems: Percent Change from Baseline, Mean [1]: −8.17%; SHAQ VAS Breathing Problems: Percent Change from Baseline, Median [1]: −41.33%; SHAQ VAS Finger Ulcers: Baseline, Mean [1]: 1.171; SHAQ VAS Finger Ulcers: Baseline, Median [1]: 0.300; SHAQ VAS Finger Ulcers: Change from Baseline, Mean [1]: −0.643; SHAQ VAS Finger Ulcers: Change from Baseline, Median [1]: 0.000; SHAQ VAS Finger Ulcers: Day 12, Mean [1]: 0.529; SHAQ VAS Finger Ulcers: Day 12, Median [1]: 0.000; SHAQ VAS Finger Ulcers: Percent Change from Baseline, Mean [1]: −17.08%; SHAQ VAS Finger Ulcers: Percent Change from Baseline, Median [1]: −50.82%; SHAQ VAS Intestinal Problems: Baseline, Mean [1]: 2.057; SHAQ VAS Intestinal Problems: Baseline, Median [1]: 1.000; SHAQ VAS Intestinal Problems: Change from Baseline, Mean [1]: −0.943; SHAQ VAS Intestinal Problems: Change from Baseline, Median [1]: 0.000; SHAQ VAS Intestinal Problems: Day 12, Mean [1]: 1.114; SHAQ VAS Intestinal Problems: Day 12, Median [1]: 0.600; SHAQ VAS Intestinal Problems: Percent Change from Baseline, Mean [1]: −32.42%; SHAQ VAS Intestinal Problems: Percent Change from Baseline, Median [1]: −44.12%; SHAQ VAS Overall Disease Severity: Baseline, Mean [1]: 2.700; SHAQ VAS Overall Disease Severity: Baseline, Median [1]: 2.900; SHAQ VAS Overall Disease Severity: Change from Baseline, Mean [1]: −1.214; SHAQ VAS Overall Disease Severity: Change from Baseline, Median [1]: −1.500; SHAQ VAS Overall Disease Severity: Day 12, Mean [1]: 1.486; SHAQ VAS Overall Disease Severity: Day 12, Median [1]: 1.200; SHAQ VAS Overall Disease Severity: Percent Change from Baseline, Mean [1]: −59.80%; SHAQ VAS Overall Disease Severity: Percent Change from Baseline, Median [1]: −55.86%; SHAQ VAS Pain: Baseline, Mean [1]: 2.057; SHAQ VAS Pain: Baseline, Median [1]: 1.700; SHAQ VAS Pain: Change from Baseline, Mean [1]: −0.529; SHAQ VAS Pain: Change from Baseline, Median [1]: −0.500; SHAQ VAS Pain: Day 12, Mean [1]: 1.529; SHAQ VAS Pain: Day 12, Median [1]: 1.000; SHAQ VAS Pain: Percent Change from Baseline, Mean [1]: −31.22%; SHAQ VAS Pain: Percent Change from Baseline, Median [1]: −44.98%; SHAQ VAS Raynaud's: Baseline, Mean [1]: 1.900; SHAQ VAS Raynaud's: Baseline, Median [1]: 1.100; SHAQ VAS Raynaud's: Change from Baseline, Mean [1]: −0.357; SHAQ VAS Raynaud's: Change from Baseline, Median [1]: −0.300; SHAQ VAS Raynaud's: Day 12, Mean [1]: 1.543; SHAQ VAS Raynaud's: Day 12, Median [1]: 1.100; SHAQ VAS Raynaud's: Percent Change from Baseline, Mean [1]: −18.64%; SHAQ VAS Raynaud's: Percent Change from Baseline, Median [1]: −38.67%; SHAQ Standard Disability Index, Change from Baseline, Mean [2]: −0.031; SHAQ Standard Disability Index, Change from Baseline, Median [2]: 0.000; SHAQ Standard Disability Index, Percent Change from Baseline, Mean [2]: −16.00%; SHAQ Standard Disability Index, Percent Change from Baseline, Median [2]: 0.00%; SHAQ Standard Disability Index, In-Clinic Visit (Day 12), Mean [3]: 0.469; SHAQ Standard Disability Index, In-Clinic Visit (Day 12), Median [3]: 0.188; SHAQ % change VAS Raynauds [4]: −17%; SHAQ % change in Alternative Disability Index [4]: −13%; SHAQ % change in Pain [4]: −31%; SHAQ % change in Standard Disability Index [4]: −25%; SHAQ % change overall SSc Disease Severity [4]: −60%; SHAQ % improvement in Breathing (median) [4]: 41%; SHAQ % improvement in VAS Digital Ulcers [4]: 19%; SHAQ % Δ from baseline, VAS Breathing, mean (Pooled cilnidipine (4)): −8.2%; SHAQ % Δ from baseline, VAS Breathing, median (Pooled cilnidipine (4)): −41.3%; SHAQ % Δ from baseline, VAS Finger Ulcers, mean (Pooled cilnidipine (4)): −17.1%
